Measurements reported in patent publication US11166942B2 (PRAXIS BIOTECH LLC, priority 2018, dated 2021).

Key:
ATF4 [1] = assay: ATF4 expression inhibition assay (ATF4 5'UTR luciferase reporter, Tg-stressed HEK293T cells); type: cell-based, human; conditions: Homo sapiens, HEK-293T, 3 h, 100 nM thapsigargin, 3 hours, HEK293T ATF4 luciferase reporter
Procedure, shortened: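 HEK293T stably expressing luciferase fused downstream of human full-length ATF4 5′UTR, stressed with 100 nM thapsigargin plus compound (100 nM or 1 μM; IC50 series 0.1 nM to 1 μM) for 3 h at 37° C. Luminescence normalized to Tg alone (0%) and untreated cells (100% inhibition).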

ATF4 [2] = assay: ATF4 inhibition assay under Aβ stimulation (SH-SY5Y cells with 7PA2 CHO conditioned media); type: cell-based, human; conditions: 16 hours, 1 nM to 10 μM compound (FIG. 7)
Method: Chinese hamster ovary (CHO) cells that stably express human APP751 incorporating the familial Alzheimer's disease mutation V717F were used as a source of […] monomer and low-n oligomers. These cells, referred to as 7PA2 CHO cells, were cultured in 100 mm dishes with Dulbecco's modified Eagle's medium (DMEM) containing 10% fetal bovine serum, 2 mM L-glutamine, 100 U/ml penicillin, and 100 μg/ml […], streptomycin and […] G418. Upon reaching 90-100% confluency, cells were washed with 5 mL of glutamine- and serum-free DMEM and incubated for approximately 16 h in 5 mL of the same DMEM. Conditioned media (CM) was collected.
SH-SY5Y cells were maintained at 37° C. and 5% CO2 in RPMI 1640 media supplemented with 10% fetal bovine serum (FBS), penicillin and streptomycin. After reaching 80% of confluence, cells were detached and seeded on 6 well plates in complete media, allowed to recover 48 h and treated for 16 hours with CM from WT CHO cells (wtCM) or 7PA2 CHO cells (7PA2CM) in the presences of various concentrations ranging from 1 nM to 10 μM of compound 58.
(§1) After 16 hours treatment, culture media were removed and cells were lysed with SDS-PAGE lysis buffer. Lysates were transferred to 1.5 ml tubes and sonicated for 3 min. Total protein amount was quantified using BCA Protein Assay Kit (Pierce). Equal amount of proteins (30 μg) were loaded on SDS-PAGE gels. […]

CHO cells = assay: Protein production by transient gene expression (GFP in CHO cells); type: cell-based, Chinese hamster; conditions: pIRES2-AcGFP1, 1 μM or 5 μM, 24 hours (FIGS. 12A, 12B)
Method: CHO cells were maintained at 37° C. and 5% CO2 in DMEM supplemented with 10% fetal bovine serum (FBS), 2 mM L-glutamine, 100 U/ml penicillin, and 100 μg/ml streptomycin. After reaching 80% of confluence, cells were detached and seeded on 6-well plates in complete media and allowed to recover for 48 h. Cells were then washed three times with PBS and transfected with 1 μg of plasmid pIRES2-AcGFP1 (Clonetech 632435) using Lipofectamine LTX (Thermofisher Scientific) according to manufacturer instructions. Transfection media was supplemented with culture medium alone (vehicle) or 1 μM or 5 μM compound 58 in culture medium.
as §1, with “After 24” for “After 16”, “μg) was” for “μg) were”
GFP (cell Signaling) and β-actin (Sigma-Aldrich) antibodies were used as primary antibodies. […] Quantification of protein bands was done by densitometry using ImageJ software.
The levels were normalized to β-actin expression and percentage was calculated as the percent relative to the expression of GFP in untreated condition (Veh) which corresponds to 100%.

SMILES: O=C(NN1CCN(C[C@@H](O)COc2ccc(Cl)c(F)c2)CC1)c1ccc2cc(Cl)ccc2n1 [Compound 58, (R)-6-chloro-N-(4-(3-(4-chloro-3-fluorophenoxy)-2-hydroxypropyl)piperazin-1-yl)quinoline-2-carboxamide]
- inhibition at 0.1 µM (ATF4 [1]; 100 nM test compound, read-out: % ATF4 inhibition at 100 nM): 86.5%
- IC50 (ATF4 [1]; read-out: ATF4 inhbition IC50): 5.7 nM
- inhibition at 1 µM (ATF4 [1]; 1 μM test compound, read-out: % ATF4 inhibition at 1 μM): 97.6%
- ATF4 expression in the presence of Aβ oligomers (immunoblot) (ATF4 [2]): inhibits the expression of ATF4 in the presence of Aβ oligomers treatment in a dose dependent manner
- expression of GFP after transient transfection (CHO cells): increased expression of GFP
